# According to ChEMBL document CHEMBL4138123, “Design, synthesis and biological evaluation of novel pyrazolochalcones as potential modulators of PI3K/Akt/mTOR pathway and inducers of apoptosis in breast cancer cells” (Eur J Med Chem, 2017):
# Columns and labels:
# Type in all cases: functional
# MOLT-4 [1] = assay: Cytotoxicity against human MOLT4 cells assessed as growth inhibition after 48 hrs by sulforhodamine B assay; conditions: MOLT-4, 48 h; for CC50: read-out: LC50 (the source's name)
# HOP-62 = assay: Cytotoxicity against human HOP62 cells assessed as growth inhibition after 48 hrs by sulforhodamine B assay; conditions: HOP-62, 48 h
# SF-268 [2] = assay: Cytotoxicity against human SF268 cells assessed as growth inhibition after 48 hrs by sulforhodamine B assay; conditions: SF-268, 48 h; for CC50: read-out: LC50 (the source's name)
# LOX IMVI = assay: Cytotoxicity against human LOXIMVI cells assessed as growth inhibition after 48 hrs by sulforhodamine B assay
# MDA-MB-435 [3] = assay: Cytotoxicity against human MDA-MB-435 cells assessed as growth inhibition after 48 hrs by sulforhodamine B assay; conditions: MDA-MB-435, 48 h
# SK-MEL-28 [4] = assay: Cytotoxicity against human SK-MEL-28 cells assessed as growth inhibition after 48 hrs by sulforhodamine B assay; conditions: SK-MEL-28, 48 h
# 786-0 [5] = assay: Cytotoxicity against human 786-0 cells assessed as growth inhibition after 48 hrs by sulforhodamine B assay; conditions: 786-0, 48 h
# A498 [6] = assay: Cytotoxicity against human A498 cells assessed as growth inhibition after 48 hrs by sulforhodamine B assay; conditions: A498, 48 h
# DU-145 = assay: Cytotoxicity against human DU145 cells assessed as growth inhibition after 48 hrs by sulforhodamine B assay; conditions: DU-145, 48 h; for CC50: read-out: LC50 (the source's name)
# T47D [7] = assay: Cytotoxicity against human T47D cells assessed as growth inhibition after 48 hrs by sulforhodamine B assay
# A498 [8] = assay: Cytotoxicity against human A498 cells assessed as cell growth at 0.01 uM after 48 hrs by sulforhodamine B assay relative to control; conditions: A498, 48 h, read-out: Activity
# OVCAR-4 = assay: Cytotoxicity against human OVCAR4 cells assessed as cell growth at 0.01 uM after 48 hrs by sulforhodamine B assay relative to control; conditions: OVCAR-4, 48 h, read-out: Activity
# M14 = assay: Cytotoxicity against human M14 cells assessed as cell growth at 0.01 uM after 48 hrs by sulforhodamine B assay relative to control; conditions: M14, 48 h, read-out: Activity
# NCI-H322M = assay: Cytotoxicity against human NCI-H322M cells assessed as cell growth at 0.01 uM after 48 hrs by sulforhodamine B assay relative to control; conditions: read-out: Activity
# MOLT-4 [9] = assay: Cytotoxicity against human MOLT4 cells assessed as cell growth at 0.01 uM after 48 hrs by sulforhodamine B assay relative to control; conditions: MOLT-4, 48 h, read-out: Activity
# MOLT-4 [10] = assay: Cytotoxicity against human MOLT4 cells assessed as cell growth at 0.1 uM after 48 hrs by sulforhodamine B assay relative to control; conditions: MOLT-4, 48 h, read-out: Activity
# UACC-257 = assay: Cytotoxicity against human UACC257 cells assessed as cell growth at 0.1 uM after 48 hrs by sulforhodamine B assay relative to control; conditions: UACC-257, 48 h, read-out: Activity
# OVCAR-5 [11] = assay: Cytotoxicity against human OVCAR5 cells assessed as cell growth at 0.1 uM after 48 hrs by sulforhodamine B assay relative to control; conditions: OVCAR-5, 48 h, read-out: Activity
# 786-0 [12] = assay: Cytotoxicity against human 786-0 cells assessed as cell growth at 0.1 uM after 48 hrs by sulforhodamine B assay relative to control; conditions: 786-0, 48 h, read-out: Activity
# RXF 393 = assay: Cytotoxicity against human RXF393 cells assessed as cell growth at 0.1 uM after 48 hrs by sulforhodamine B assay relative to control; conditions: RXF 393, 48 h, read-out: Activity
# BT-549 = assay: Cytotoxicity against human BT549 cells assessed as cell growth at 0.1 uM after 48 hrs by sulforhodamine B assay relative to control; conditions: BT-549, 48 h, read-out: Activity
# T47D [13] = assay: Cytotoxicity against human T47D cells assessed as cell growth at 0.1 uM after 48 hrs by sulforhodamine B assay relative to control; conditions: read-out: Activity
# MDA-MB-468 = assay: Cytotoxicity against human MDA-MB-468 cells assessed as cell growth at 0.1 uM after 48 hrs by sulforhodamine B assay relative to control; conditions: MDA-MB-468, 48 h, read-out: Activity
# SF-268 [14] = assay: Cytotoxicity against human SF268 cells assessed as cell growth at 1 uM after 48 hrs by sulforhodamine B assay relative to control; conditions: SF-268, 48 h, read-out: Activity
# Malme-3M = assay: Cytotoxicity against human MALME-3M cells assessed as cell growth at 1 uM after 48 hrs by sulforhodamine B assay relative to control; conditions: read-out: Activity
# MDA-MB-435 [15] = assay: Cytotoxicity against human MDA-MB-435 cells assessed as cell growth at 1 uM after 48 hrs by sulforhodamine B assay relative to control; conditions: MDA-MB-435, 48 h, read-out: Activity
# OVCAR-5 [16] = assay: Cytotoxicity against human OVCAR5 cells assessed as cell growth at 1 uM after 48 hrs by sulforhodamine B assay relative to control; conditions: OVCAR-5, 48 h, read-out: Activity
# OVCAR-8 = assay: Cytotoxicity against human OVCAR8 cells assessed as cell growth at 1 uM after 48 hrs by sulforhodamine B assay relative to control; conditions: OVCAR-8, 48 h, read-out: Activity
# K562 = assay: Cytotoxicity against human K562 cells assessed as cell growth at 10 uM after 48 hrs by sulforhodamine B assay relative to control; conditions: K562, 48 h, read-out: Activity
# HCC 2998 = assay: Cytotoxicity against human HCC2998 cells assessed as cell growth at 10 uM after 48 hrs by sulforhodamine B assay relative to control; conditions: HCC 2998, 48 h, read-out: Activity
# SF-268 [17] = assay: Cytotoxicity against human SF268 cells assessed as cell growth at 10 uM after 48 hrs by sulforhodamine B assay relative to control; conditions: SF-268, 48 h, read-out: Activity
# PC-3 = assay: Cytotoxicity against human PC3 cells assessed as cell growth at 10 uM after 48 hrs by sulforhodamine B assay relative to control; conditions: PC-3, 48 h, read-out: Activity
# KM12 = assay: Cytotoxicity against human KM12 cells assessed as cell growth at 100 uM after 48 hrs by sulforhodamine B assay relative to control; conditions: KM12, 48 h, read-out: Activity
# SNB-19 = assay: Cytotoxicity against human SNB19 cells assessed as cell growth at 100 uM after 48 hrs by sulforhodamine B assay relative to control; conditions: SNB-19, 48 h, read-out: Activity
# SK-MEL-28 [18] = assay: Cytotoxicity against human SK-MEL-28 cells assessed as cell growth at 100 uM after 48 hrs by sulforhodamine B assay relative to control; conditions: SK-MEL-28, 48 h, read-out: Activity
compound,measurement,setting,value
COc1cc(-c2cc(/C=C/C(=O)c3ccc4c(c3)OCO4)[nH]n2)cc(OC)c1OC,TGI,MOLT-4 [1],9.15 µM
same,CC50,MOLT-4 [1],> 100 µM
same,LC50,HOP-62,23.5 µM
same,TGI,HOP-62,5.17 µM
same,TGI,SF-268 [2],14.5 µM
same,CC50,SF-268 [2],> 100 µM
same,LC50,LOX IMVI,7.83 µM
same,TGI,LOX IMVI,3.78 µM
same,LC50,MDA-MB-435 [3],> 100 µM
same,LC50,SK-MEL-28 [4],> 100 µM
same,TGI,SK-MEL-28 [4],7.34 µM
same,LC50,786-0 [5],> 100 µM
same,TGI,786-0 [5],5.82 µM
same,LC50,A498 [6],> 100 µM
same,TGI,A498 [6],15.4 µM
same,TGI,DU-145,9.56 µM
same,CC50,DU-145,> 100 µM
same,LC50,T47D [7],> 100 µM
same,TGI,T47D [7],17 µM
same,growth at 0.01 µM,A498 [8],89%
same,growth at 0.01 µM,OVCAR-4,91%
same,growth at 0.01 µM,M14,97%
same,growth at 0.01 µM,NCI-H322M,94%
same,growth at 0.01 µM,MOLT-4 [9],97%
same,growth at 0.1 µM,MOLT-4 [10],103%
same,growth at 0.1 µM,UACC-257,91%
same,growth at 0.1 µM,OVCAR-5 [11],91%
same,growth at 0.1 µM,786-0 [12],97%
same,growth at 0.1 µM,RXF 393,89%
same,growth at 0.1 µM,BT-549,99%
same,growth at 0.1 µM,T47D [13],91%
same,growth at 0.1 µM,MDA-MB-468,90%
same,growth at 1 µM,SF-268 [14],90%
same,growth at 1 µM,Malme-3M,94%
same,growth at 1 µM,MDA-MB-435 [15],90%
same,growth at 1 µM,OVCAR-5 [16],88%
same,growth at 1 µM,OVCAR-8,91%
same,growth at 10 µM,K562,-1%
same,growth at 10 µM,HCC 2998,-87%
same,growth at 10 µM,SF-268 [17],5%
same,growth at 10 µM,PC-3,6%
same,growth at 100 µM,KM12,3%
same,growth at 100 µM,SNB-19,6%
same,growth at 100 µM,SK-MEL-28 [18],-16%
COc1ccc(C(=O)/C=C/c2cc(-c3cc(OC)c(OC)c(OC)c3)n[nH]2)cc1OC,TGI,MOLT-4 [1],5.56 µM
same,CC50,MOLT-4 [1],> 100 µM
same,LC50,HOP-62,5.35 µM
same,TGI,HOP-62,2.77 µM
same,TGI,SF-268 [2],3.96 µM
same,CC50,SF-268 [2],8.59 µM
same,LC50,LOX IMVI,5.53 µM
same,TGI,LOX IMVI,2.76 µM
same,LC50,MDA-MB-435 [3],5.52 µM
same,TGI,MDA-MB-435 [3],2.71 µM
same,LC50,SK-MEL-28 [4],6.25 µM
same,TGI,SK-MEL-28 [4],3.34 µM
same,LC50,786-0 [5],5.82 µM
same,TGI,786-0 [5],2.86 µM
same,LC50,A498 [6],6 µM
same,TGI,A498 [6],2.98 µM
same,TGI,DU-145,1.84 µM
same,CC50,DU-145,4.76 µM
same,LC50,T47D [7],> 100 µM
same,TGI,T47D [7],4.36 µM
same,growth at 0.01 µM,A498 [8],97%
same,growth at 0.01 µM,OVCAR-4,95%
same,growth at 0.01 µM,M14,97%
same,growth at 0.01 µM,NCI-H322M,94%
same,growth at 0.01 µM,MOLT-4 [9],102%
same,growth at 0.1 µM,MOLT-4 [10],98%
same,growth at 0.1 µM,UACC-257,89%
same,growth at 0.1 µM,OVCAR-5 [11],88%
same,growth at 0.1 µM,786-0 [12],94%
same,growth at 0.1 µM,RXF 393,100%
same,growth at 0.1 µM,BT-549,90%
same,growth at 0.1 µM,T47D [13],98%
same,growth at 0.1 µM,MDA-MB-468,89%
same,growth at 1 µM,SF-268 [14],89%
same,growth at 1 µM,Malme-3M,106%
same,growth at 1 µM,MDA-MB-435 [15],70%
same,growth at 1 µM,OVCAR-5 [16],86%
same,growth at 1 µM,OVCAR-8,69%
same,growth at 10 µM,K562,-13%
same,growth at 10 µM,HCC 2998,-85%
same,growth at 10 µM,SF-268 [17],-60%
same,growth at 10 µM,PC-3,-88%
same,growth at 100 µM,KM12,-75%
same,growth at 100 µM,SNB-19,-95%
same,growth at 100 µM,SK-MEL-28 [18],-90%
